Results on 12 compounds are retold here after PubChem BioAssay (NCI).

Test systems include SK-MEL-2 melanoma; OVCAR-3 ovarian; HCT-15 colon; NCI-H23 lung; BT-549 breast; RXF 393 renal; MDA-MB-231 breast; NCI-H522 lung; HOP-62 NSCLC; SF-268 CNS.
Common to all, as to assay: inhibition of tumour cell growth, NCI panel, 48 h

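Five concentrations, 48 hours, 96-well plates. At the GI50, growth is halved. TGI: concentration producing complete growth inhibition.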

Turning to `O=C1[C@@H]2[C@@H](CN3CN(c4ccccc4)N=C(c4ccccc4)[C@@]23c2ccccc2)C(=O)N1c1ccccc1`, the TGI in the test with SK-MEL-2 melanoma was determined as 40.3 µM; with OVCAR-3 ovarian, 21.2 µM; in the test with HCT-15 colon, 5.25 µM; in the test with NCI-H23 lung it was 23.6 µM; in the test with BT-549 breast, 13.2 µM; in the test with RXF 393 renal, 9.65 µM. In addition, the TGI in the test with MDA-MB-231 breast is 16.6 µM; with NCI-H522 lung, 1.13 µM; in the test on HOP-62 NSCLC, 30 µM; with SF-268 CNS, 47.1 µM.

Turning to `Oc1ccc(C(O)C2CCCCN2)cc1O` (stereo not given), the TGI in the test on SK-MEL-2 melanoma, in the test with OVCAR-3 ovarian, with HCT-15 colon, in the test on NCI-H23 lung, with BT-549 breast and with RXF 393 renal was more than 100 µM throughout. Further, the TGI with MDA-MB-231 breast, with NCI-H522 lung, in the test on HOP-62 NSCLC and with SF-268 CNS was more than 100 µM each time.

On to `N#Cc1c(NC(=S)Nc2ccc(Cl)cc2)sc2c1CCN(N1CCc3c(sc(NC(=S)Nc4ccc(Cl)cc4)c3C#N)C1)C2`, for which the TGI with SK-MEL-2 melanoma is 50.2 µM; in the test on OVCAR-3 ovarian it was more than 100 µM; with HCT-15 colon, more than 100 µM; in the test on NCI-H23 lung, more than 100 µM; with BT-549 breast it was more than 100 µM; in the test with RXF 393 renal, 78.3 µM. Moreover, the TGI in the test with MDA-MB-231 breast is 27.2 µM; in the test on NCI-H522 lung, more than 100 µM; in the test with HOP-62 NSCLC it was 55.2 µM; in the test with SF-268 CNS, more than 100 µM.

For `C=C(Br)CN=CN(C)C`, the TGI with SK-MEL-2 melanoma, in the test with OVCAR-3 ovarian, in the test on HCT-15 colon, with NCI-H23 lung, in the test with BT-549 breast and with RXF 393 renal was more than 100 µM throughout. Also, the TGI with MDA-MB-231 breast, in the test with NCI-H522 lung, with HOP-62 NSCLC and in the test with SF-268 CNS was more than 100 µM throughout.

Regarding `ClC1=NN=C(c2c[nH]c3ccccc23)CC1NCc1ccccc1` (stereo not given), the TGI in the test on SK-MEL-2 melanoma, in the test on OVCAR-3 ovarian, with HCT-15 colon, in the test on NCI-H23 lung, in the test on BT-549 breast and in the test on RXF 393 renal was more than 100 µM in each case. Moreover, the TGI with MDA-MB-231 breast, with NCI-H522 lung, in the test on HOP-62 NSCLC and in the test with SF-268 CNS was more than 100 µM in each case.

As for `CCOC(=O)c1cc(-c2ccc(OC)cc2)c([N+](=O)[O-])[nH]1`, the TGI in the test with SK-MEL-2 melanoma, in the test with OVCAR-3 ovarian, in the test with HCT-15 colon, in the test on NCI-H23 lung, with BT-549 breast and with RXF 393 renal was more than 10 µM each time. Besides, the TGI in the test with MDA-MB-231 breast, with NCI-H522 lung, with HOP-62 NSCLC and with SF-268 CNS was more than 10 µM throughout.

For the compound `CN1CCN(C(=O)c2cn(Cc3cncn3Cc3ccc4c(c3)OCO4)cc2-c2cccc3ccccc23)CC1`, the TGI was 20.8 µM in the test on SK-MEL-2 melanoma; more than 91.3 µM in the test with OVCAR-3 ovarian; more than 100 µM in the test on HCT-15 colon; more than 89.7 µM in the test with NCI-H23 lung; more than 63 µM with BT-549 breast; more than 100 µM in the test on RXF 393 renal. In addition, the TGI in the test on MDA-MB-231 breast was 33.3 µM; with NCI-H522 lung, 84.1 µM; in the test on HOP-62 NSCLC it was more than 100 µM; in the test on SF-268 CNS, 66.5 µM.

On to `O=C1c2cc3c(cc2-c2c1c1cc(F)c(F)cc1c(=O)n2CCCn1ccnc1)OCO3`, for which the GI50 with SK-MEL-2 melanoma is 0.256 µM; in the test on OVCAR-3 ovarian, 0.116 µM; in the test with HCT-15 colon, 0.117 µM; in the test on NCI-H23 lung, 0.0204 µM; with BT-549 breast, 0.0502 µM; with RXF 393 renal, 0.036 µM. The GI50 with MDA-MB-231 breast was 0.311 µM; in the test with NCI-H522 lung it was 0.0124 µM; with HOP-62 NSCLC, less than 0.01 µM; in the test with SF-268 CNS, less than 0.01 µM. Also, the TGI in the test with SK-MEL-2 melanoma was 0.93 µM; in the test on OVCAR-3 ovarian it was 1.52 µM; with HCT-15 colon, more than 100 µM; in the test with NCI-H23 lung, 0.29 µM; with BT-549 breast it was 49.5 µM; in the test on RXF 393 renal it was 0.169 µM. For the same compound, the TGI with MDA-MB-231 breast is more than 100 µM; in the test with NCI-H522 lung it was 0.432 µM; in the test on HOP-62 NSCLC it was 0.0477 µM; with SF-268 CNS, more than 100 µM.

On to `Cc1ccccc1NC(=O)O/N=C(\Cl)C(C)C`, for which the TGI with SK-MEL-2 melanoma worked out at 32.6 µM; in the test with OVCAR-3 ovarian, 9.35 µM; in the test on HCT-15 colon, 4.17 µM; in the test with NCI-H23 lung, 32 µM; with BT-549 breast, 12.6 µM; with RXF 393 renal it was 25.1 µM. The TGI in the test with MDA-MB-231 breast came to 32.7 µM; with NCI-H522 lung it was 3.18 µM; in the test with HOP-62 NSCLC it was 33.4 µM; with SF-268 CNS, 45.1 µM.

`CCC1(c2ccc(N3C(=O)c4cccc5cc([N+](=O)[O-])cc(c45)C3=O)cc2)CCC(=O)NC1=O` (stereo not given): the TGI is more than 100 µM in the test on SK-MEL-2 melanoma; 56.5 µM with OVCAR-3 ovarian; more than 100 µM in the test on HCT-15 colon; more than 66.2 µM with NCI-H23 lung; 38.6 µM in the test with BT-549 breast; 20.4 µM with RXF 393 renal. For the same compound, the TGI in the test on MDA-MB-231 breast stood at 21.4 µM; in the test on NCI-H522 lung it was 35.1 µM; in the test on HOP-62 NSCLC, 26.9 µM; in the test on SF-268 CNS, 51.8 µM.

For the compound `Nc1[nH]c(=O)nc2c1ncn2C1OC(CO)C(O)C1O` (stereo not given), the TGI in the test with SK-MEL-2 melanoma was more than 100 µM; with OVCAR-3 ovarian, more than 100 µM; with HCT-15 colon it was 95.4 µM; in the test on NCI-H23 lung, more than 100 µM; in the test with BT-549 breast, more than 100 µM; in the test with RXF 393 renal, more than 100 µM. The TGI with MDA-MB-231 breast, in the test on NCI-H522 lung, in the test with HOP-62 NSCLC and with SF-268 CNS was more than 100 µM each time.

Take `C=C(NC(=O)C(=C)NC(=O)c1ccc2c(n1)-c1coc(n1)C(=C)NC(=O)C(=C)NC(=O)c1nc(oc1C)C(=C)NC(=O)C(C(C)(C)O)NC(=O)C(=C)NC(=O)c1coc(n1)/C(=C/C)NC(=O)[C@H]([C@@H](C)O)NC(=O)c1csc-2n1)C(N)=O` (stereo not given in full): the TGI in the test on SK-MEL-2 melanoma, in the test with OVCAR-3 ovarian, in the test with HCT-15 colon, in the test with NCI-H23 lung, with BT-549 breast and in the test with RXF 393 renal was more than 87.5 µM throughout. In addition, the TGI in the test on MDA-MB-231 breast, in the test on NCI-H522 lung, with HOP-62 NSCLC and with SF-268 CNS was more than 87.5 µM in each case.
